This is an account of results in patent publication EP0314528B1, “Article for the controlled release and delivery of substances to animal tissues” (HERCON LABORATORIES CORPORATION, priority 1987, dated 1989).

One assay relates to rat footpad. The settings on record: applied topically to rat footpad; cited from earlier work.
In a further assay the test system is cyclooxygenase. The settings on record: cited from earlier work.
The subject of a further assay is prostaglandin E2. The settings on record: cited from earlier work.
In another assay the test system is leukotriene C4. The settings on record: cited from earlier work.
A further assay has as its system guinea pig skin. The settings on record: compared with indomethacin; cited from earlier work.
The test system of assay [1] is human subject previously sensitized to trifluoperazine. In words: Contact allergic dermatitis to trifluoperazine patches with incorporated fluocinonide, sensitized subject. As to conditions: 2% fluocinonide incorporated in the trifluoperazine patch. It counts as in vivo. An excerpt: (§1) The Grading System for this example is as follows: +/- faint, or spotty, pink color within test site; 1 uniform pink color covering all of test site; 2 uniform pink to red color covering all of test site; 3 uniform bright red color covering all of test site; 4 uniform bright red color covering all of test side with edema, blisters, or weeping.
Objective - To block the contact allergic dermatitis which occurs following application of trifluoperazine patches to the skin through the incorporation of fluocinonide in the patches. Materials - One formulation of the tranquilizer drug trifluoperazine was used in which either 0% or 2% fluocinonide was incorporated. Thus, the following formulations were prepared: […]
Methods - Two patches containing trifluoperazine and either 0% or 2% fluocinonide were applied to the upper arm of a single human subject previously sensitized to trifluoperazine. The patches were removed after two days and the sites read immediately and 24 and 48 hours later as well. […]

In assay [2] the test system is human subject previously sensitized to fluphenazine. In words: Contact allergic dermatitis to fluphenazine patches with incorporated fluocinonide, sensitized subject. In kind it is in vivo. As to conditions: 1% or 5% fluocinonide incorporated in the fluphenazine patch.
Excerpt: as §1
Objective - To block contact dermatitis observed following application of fluphenazine patches to the skin through incorporation of fluocinonide in the patch. Materials - One formulation of the anti-psychotic drug fluphenazine was used in which either 0%, 1% or 5% fluocononide was incorporated. Thus, the following formulations were prepared: […]
Methods - Three patches containing fluphenazine and fluocinonide at either 0%, 1% or 5% of fluocinonide were applied to the upper arm of a single human subject previously sensitized to fluphenazine. The patches were removed at 48 hours and the sites observed for signs of allergic dermatitis immediately and at 72 and 96 hours. […]

Assay [3] deals with human subject. As to the kind of experiment: Contact irritant dermatitis to RO 22-1327 patches with incorporated fluocinonide. It counts as in vivo. As to conditions: 1.0% fluocinonide incorporated into the RO 22-1327 patch.
Excerpt: as §1
Objective - To block the contact irritant dermatitis observed following application of RO 22-1327 patches to the skin through the incorporation of fluocinonide in the patch. Materials - One formulation of the antihypertensive drug RO 22-1327 was used, in which either 0%, 0.1%. 1.0% or 5% fluocinonide was incorporated. Methods - Four patches containing RO 22-1327 and fluocinonide at either 0%, 0.1%, 1.0%. or 5.0% were applied to the upper arms (two per arm) of a single human subject not previously exposed to this drug. The patches were removed at 8 hours and the sites observed for signs of dermatitis immediately and 16 hours later. In a second test. one RO 22-1327 patch containing 1.0% fluocinonide was applied to the upper arm of the same human subject as above and removed after 24 hours. The site was examined immediately for signs of dermatitis.

For assay [4], the system named is human subject previously sensitized to clonidine. In words: Contact allergic dermatitis to clonidine patches with incorporated fluocinonide, sensitized subject. In kind it is in vivo. The settings on record: 2% fluocinonide incorporated in the clonidine patch.
Excerpt: as §1
Objective - To block the contact allergic dermatitis which occurs following application of clonidine patches to the skin through incorporation of fluocinonide in the patches. Materials - One formulation of the anti-hypertensive drug clonidine was used in which either 0% or 2% fluocinonide was incorporated. A second formulation containing no clonidine was also tested. Thus, the following formulations were prepared: […]
Methods - Two patches containing clonidine and either 0% or 2% fluocinonide were applied to the upper back of a single human subject previously sensitized to clonidine. A third patch containing no clonidine and no fluocinonide was also applied as a placebo. The patches were removed after 7 days and the sites read immediately and on the 8th day as well. […]

Assay [5] concerns human subject. In words: Contact irritant dermatitis to guanfacine patches with incorporated hydrocortisone. In kind it is in vivo. As to conditions: 23 hour and 1 week observation.
Excerpt: as §1
Objective - To block the contact irritant dermatitis observed following application of guanfacine patches to the skin through the incorporation of hydrocortisone in the patch. Materials - Two formulations of the antihypertensive drug guanfacine were used in this study. Into each was incorporated hydrocortisone at either 0.5% or 2.0%. Control patches containing no hydrocortisone were also used. Thus, the following formulations were prepared: […]
(To make the 0.5% hydrocortisone formulations, 20 mg hydrocortisone was added to 4 grams of the above formulations. To make 2.0% hydrocortisone formulations, 80 mg of hydrocortisone was added to 4 grams of the above two formulations). Methods - Three patches of each of the two guanfacine formulations, containing either 0%, 0.5% or 2.0% hydrocortisone, were applied to the upper arm of a single human subject not previously exposed to this drug. The patches were removed after 23 hours and the sites observed for signs of dermatitis. One week later, the sites were again observed.

On to `COc1cc(-c2nc3ncccc3o2)cc(C(C)(C)C)c1` [2-(3-(1,1-dimethylethyl)5-methoxyphenyl-oxazolo(4,5-b)pyridine], for which, in the assay on rat footpad, the analgesic effect result was “effective analgesic”. For the same compound, the cyclooxygenase inhibition result in the assay with cyclooxygenase is reported as “inhibitor”. Also, the “inhibition of prostaglandin E2 synthesis” value with prostaglandin E2 is listed as “inhibitor”. Moreover, the “inhibition of leukotriene C4 synthesis” value with leukotriene C4 is recorded as “not”. Besides, the “inhibiting ultra-violet light-induced erythema” value in the assay with guinea pig skin is “as potent as indomethacin”.
For `CC(=O)OCC(=O)[C@@]12OC(C)(C)O[C@@H]1C[C@H]1[C@@H]3C[C@H](F)C4=CC(=O)C=C[C@]4(C)[C@@]3(F)[C@@H](O)C[C@@]12C` [fluocinonide], the “magnitude of the allergic reaction (erythema and blistering) caused by trifluoperazine” value in [1] is given as “significantly reduced”. In assay [2], the “allergic reaction (erythema and blistering) caused by fluphenazine” value is reported as “almost completely blocked”. In addition, the “irritant dermatitis associated with the use of RO 22-1327” value in the assay with human subject [3] was “significant reduction”. For the same compound, in assay [4], the “allergic reaction (erythema and blistering) caused by clonidine” value is recorded as “significantly reduced”.
With `C[C@]12CCC(=O)C=C1CC[C@@H]1[C@@H]2[C@@H](O)C[C@@]2(C)[C@H]1CC[C@]2(O)C(=O)CO` [hydrocortisone], the “adverse reactions (irritant dermatitis)” value is “variable” with human subject [5] (0.5% hydrocortisone guanfacine patches) and “No adverse reactions” in the assay with human subject [5] (2.0% hydrocortisone guanfacine patches).
